Measurements as given in patent US20020102688A1, “Methods and products for the synthesis of oligosaccharide structures on glycoproteins, glycolipids, or as free molecules, and for the isolation of cloned genetic sequences that determine these structures” (The Regents of the University of Michigan, priority 1990, published 2002).

Tests used:
[1] = molecular target: T1, Fuc-TIV (Homo sapiens, UniProt P22083); experiment: Fucosyltransferase assay, extracts of COS-1 cells transfected with pCDNA1-Fuc-TIV; format: biochemical; set-up: expressed in transfected cells; host or cells: COS-1 cells, transient transfection, 1% Triton X-100 extract; conditions: for Relative Activity (%) with Fuc-TIV: relative product formation rate, N-acetyllactosamine = 100, acceptor 20 mM (2-fucosyllactose 5 mM), GDP-[14C]fucose 3 μM, transfected COS-1 cell extract; for fucosyltransferase activity with acceptor substrate: standard assay, extracts of pCDNA1-Fuc-TIV transfected COS-1 cells, acceptor 20 mM; for fucose transfer to acceptor: pCDNA1-Fuc-TIV COS-1 extracts with relatively large activity toward N-acetyllactosamine
T1 sequence (P22083 1-405 isoform P22083-2): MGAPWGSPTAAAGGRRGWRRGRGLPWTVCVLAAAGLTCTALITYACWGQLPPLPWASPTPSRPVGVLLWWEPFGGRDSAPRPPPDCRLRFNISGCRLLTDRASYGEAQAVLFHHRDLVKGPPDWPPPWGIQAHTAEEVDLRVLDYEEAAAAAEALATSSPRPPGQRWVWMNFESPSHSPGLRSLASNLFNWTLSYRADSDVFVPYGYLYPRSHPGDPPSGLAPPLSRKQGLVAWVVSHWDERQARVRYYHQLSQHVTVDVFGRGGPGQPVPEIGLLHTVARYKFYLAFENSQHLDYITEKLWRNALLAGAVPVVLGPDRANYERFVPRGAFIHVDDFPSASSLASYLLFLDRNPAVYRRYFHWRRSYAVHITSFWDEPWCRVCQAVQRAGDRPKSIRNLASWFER
Procedure: Cell extracts containing 1% Triton X-100 were prepared from transfected COS-1 cells. Fucosyltransferase assays were performed in a total volume of 20 μl, and contained 50 mM sodium cacodylate, pH 6.2, 5 mM ATP, 10 mM fucose, 20 mM MnCl2, 3 μM GDP-^14C-fucose, and 5 μl (30 μg protein) of cell extract. Acceptor substrates were added to a final concentration of 20 mM. Reactions were incubated at 37° C. for 1 hour and terminated by addition of 20 μl ethanol, followed by addition of 600 μl of distilled water. An aliquot of each reaction (50 μl) was subjected to scintillation counting to determine total radioactivity in the reaction. Another aliquot (200 μl) was applied to a column containing 400 μl of Dowex IX2-400, formate form. The flow through fraction, and […] of a subsequent water elution, were collected and pooled, and an aliquot was subjected to scintillation counting to quantitate incorporation of radioactive fucose into neutral product. Descending paper chromatography was used to confirm the structure of the product formed with the acceptor N-acetyllactosamine. The neutral product in the Dowex column eluate was concentrated by lyophilization, resuspended in a small volume of water, and fractionated through Whatman No. 40 in phenol/isopropanol/formic acid/water (85:5:10:100, lower layer). After chromatography (40 hours), the air-dried chromatogram was cut into 1 cm strips and the strips eluted into 2 ml of water. Radioactivity in each eluate was determined by scintillation counting after mixing with 10 ml of scintillation cocktail.
(§1) Table 2 presents the relative product formation rates obtained with low molecular weight acceptor substrates using cell extracts containing recombinant human α(1,3)fucosyltransferases expressed in transfected COS-1 cells, as described in the preceding sections. Fucosyltransferase assays were performed as described in detail in Lowe et al, J. Biol. Chem., (1991), 266:17467-17477; Weston et al, J. Biol. Chem. (1992), 267:4152-4160; and Kukowska-Latallo et al, Genes. Devel., (1990), 4:1288-1303. For each enzyme, the same extract was used, with saturating amounts of each acceptor oligosaccharide (20 mM, except for 2′-fucosylactose which was used at 5 mM), and GDP-^14C]fucose was present at 3 μM. Reaction times and enzyme amounts were adjusted to ensure a linear rate of product formation (less than 15% of the GDP-fucose substrate consumed). Products were separated by column chromatography and quantitated by liquid scintillation counting, and their structures were confirmed by high performance liquid chromatography, as described in Lowe et al, J. Biol. Chem., (1991), 266:17467-17477; Weston et al, J. Biol. Chem. (1992), 267:4152-4160; and Kukowska-Latallo et al, Genes. Devel., (1990), 4:1288-1303.

[2] = molecular target: T2, Fuc-TV (Homo sapiens, UniProt Q11128); experiment: Fucosyltransferase assay, extracts of COS-1 cells transfected with pCDNA1-Fuc-TV; format: biochemical; conditions: for utilization as acceptor substrate by Fuc-TV (in words): extracts of COS-1 cells transfected with pCDNA1-Fuc-TV; for Relative Activity (%) with Fuc-TV: relative product formation rate, N-acetyllactosamine = 100, acceptor 20 mM (2-fucosyllactose 5 mM), GDP-[14C]fucose 3 μM, transfected COS-1 cell extract
T2 construct: a 1.94 kb Earl-Xbal fragment containing the entire open reading frame was cloned into a mammalian expression vector; expressed in transfected cells; host or cells: COS-1 cells, transient transfection, 1% Triton X-100 extract
T2 sequence (Q11128 1-374): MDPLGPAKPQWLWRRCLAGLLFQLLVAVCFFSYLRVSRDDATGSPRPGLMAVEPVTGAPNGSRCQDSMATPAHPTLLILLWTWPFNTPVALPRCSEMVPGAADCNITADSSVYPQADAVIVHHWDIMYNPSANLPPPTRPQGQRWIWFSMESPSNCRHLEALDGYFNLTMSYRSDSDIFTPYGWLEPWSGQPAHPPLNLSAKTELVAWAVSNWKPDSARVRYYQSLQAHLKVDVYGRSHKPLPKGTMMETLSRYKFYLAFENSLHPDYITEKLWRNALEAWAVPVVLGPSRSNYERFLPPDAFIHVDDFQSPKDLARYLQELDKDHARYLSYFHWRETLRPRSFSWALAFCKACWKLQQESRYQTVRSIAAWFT
Procedure: Cell extracts containing 1% Triton X-100 were prepared from transfected COS-1 cells. Fucosyltransferase assays were performed in a total volume of 20 μl, and contained 25 mM sodium cacodylate, pH6.2, 5 mM ATP, 10 mM L-fucose, 10 mM MnCl2, 3 μM GDP-^14C-fucose, and 5 μl of cell extract. Acceptor substrates were added to a final concentration of 20 mM. Reactions were incubated at 37° C. for 1 hour and terminated by addition of 20 μl ethanol, followed by addition of 600 μl of distilled water. An aliquot of each reaction (50 μl) was subjected to scintillation counting to determine total radioactivity in the reaction. Another aliquot (200 μl) was applied to a column containing 400 μl of Dowex 1X2-400, formate form. The flow through fraction, and […] of a subsequent water elution, were collected and pooled, and an aliquot was subjected to scintillation counting to quantitate incorporation of radioactive fucose into neutral product.
as §1

Question: What does the source list for `CC(=O)N[C@@H]1[C@@H](O[C@@H]2O[C@H](CO)[C@H](O)[C@H](O)[C@H]2O)[C@H](O)[C@@H](CO)O[C@@H]1O` [lacto-N-biose I]?
Answer: Relative Activity (%) with Fuc-TIV [1]: <1%; fucosyltransferase activity with acceptor substrate [1]: trace amount; utilization as acceptor substrate by Fuc-TV (in words) [2]: low efficiency; Relative Activity (%) with Fuc-TV [2]: 10%

Question: For “Fucα(1,2)Galβ(1,4)Glc [2-fucosyllactose]”, which “Relative Activity (%) with Fuc-TIV” value [1] is on record?
Answer: Its value is 6%.

Question: What about the “fucosyltransferase activity with acceptor substrate” value [1] of the same compound?
Answer: Its value is 17 pmol/mg/h.

Question: What about the “utilization as acceptor substrate by Fuc-TV (in words)” value [2] of the same compound?
Answer: Its value is “substantially lower efficiencies”.

Question: What about the “Relative Activity (%) with Fuc-TV” value [2] of the same compound?
Answer: Its value is 42%.

Question: What does the source list for `CC(=O)NC1C(O)OC(CO)C(OC2OC(CO)C(O)C(OC3(C(=O)O)CC(O)C(NC(C)=O)C(C(O)C(O)CO)O3)C2O)C1O` (stereo not drawn) [α(2,3)sialyllactosamine, NeuAcα(2→3)Galβ(1→4)GlcNAc]?
Answer: fucose transfer to acceptor [1]: less than 1 pmol/mg-h; Relative Activity (%) with Fuc-TIV [1]: <1%; utilization as acceptor substrate by Fuc-TV (in words) [2]: efficiently utilized; Relative Activity (%) with Fuc-TV [2]: 115%

Question: Which results are given for `OC[C@H]1O[C@@H](O[C@H]2[C@H](O)[C@@H](O)C(O)O[C@@H]2CO)[C@H](O)[C@@H](O)[C@H]1O` (stereo partly drawn) [lactose]?
Answer: Relative Activity (%) with Fuc-TIV [1]: 3%; fucosyltransferase activity with acceptor substrate [1]: 10 pmol/mg/h; utilization as acceptor substrate by Fuc-TV (in words) [2]: substantially lower efficiencies; Relative Activity (%) with Fuc-TV [2]: 11%

Question: What does the source list for `CC(=O)N[C@H]1C(O)O[C@H](CO)[C@@H](O[C@@H]2O[C@H](CO)[C@H](O)[C@H](O)[C@H]2O)[C@@H]1O` (stereo partly drawn) [N-acetyllactosamine]?
Answer: fucose transfer to acceptor [1]: 474 pmol/mg/h; Relative Activity (%) with Fuc-TIV [1]: 100%; fucosyltransferase activity with acceptor substrate [1]: 296 pmol/mg/h; utilization as acceptor substrate by Fuc-TV (in words) [2]: utilized; Relative Activity (%) with Fuc-TV [2]: 100%
